In patent US20190142835A1, “INHIBITION OF AUTOPHAGY USING PHOSPHOLIPASE A2 INHIBITORS” (OREGON HEALTH & SCIENCE UNIVERSITY, priority 2017, published 2019):

Legend:
[1] = system: ACHN cells; assay: High content imaging screen of 116 small molecule inhibitors for p62 and pS6; type: cell-based, human; details: HCI screen, 72 hr
Excerpt: We used a metastatic human RCC cell line, ACHN. Small molecule inhibitors have been extensively used in RCC over the last decade. […] Importantly, p62 is an autophagy substrate that is degraded along with its cargo, and so is expected to decrease with induction of autophagy. Therefore, we monitored p62 steady-state levels as an initial screen of autophagy flux. Next, we combined the measurement of the p62 with a measurement of mTORC1 activity an independent readout to evaluate autophagy. mTORC1 plays the central role in the anabolic process by increasing protein content through ribosomal biogenesis and elongation of protein translation. Specifically, mTORC1 induces mRNA translation by inducing the activation of p70S6 kinase and the subsequent phosphorylation of the S6 ribosomal protein. To ensure increased cellular biomass, mTORC1 downregulates autophagy. We chose the phosphorylation status of the downstream target of mTORC1 signaling, ribosomal S6 (hereafter S6) as a readout for mTORC1 activity.
To provide a straightforward method for detecting the induction of autophagy, we monitored ACHN cells for small molecule inhibitors which decreased the antibody labelled levels of p62 protein and pS6 phosphorylation (see methods below for detailed experiment procedure). To that end, automated high content imaging (HCl) microscopy was used to detect induction of autophagy as documented by the […] by p62 protein expression and mTORC1 inhibition by the decrease in S6 phosphorylation. The HCl assay was optimized for 384-well plate screening. Drug screening plates were designed and created as previously described.
A 7-point dilution series of 116 small molecule inhibitors covering a 1000× concentration range were plated into three, 384-well plates using the EP Motion automated dispensing system. Control wells with equal volumes of DMSO were included as negative controls. ACHN cells were grown, trypsinized counted, and plated directly into warm drug plates using Multidrop combi dispenser. Plates were incubated for 72 hr and subsequently imaged on the Olympus ScanR Platform at 10× magnification performing 4 images per well in 384 well plates. Single-cell nuclear and cytoplasmic fluorescent intensities were calculated using the Olympus ScanR Analysis Software: the DAPI-positive region of each cell was used as a boundary to quantitate nuclei counts for analysis of cell growth and integrated nuclear DNA staining intensity was used for cell cycle analysis. A 10-pixel extension of the nuclear region (and not including the nuclear region) was used to quantitate cytoplasmic signal of immunofluorescent staining of p62 protein and phosphorylation of S6. Mean signal intensity of each marker in all cells per well was used as the metric for cytoplasmic marker expression (average intensity of pS6 and p62). Unsupervised hierarchical clustering was used to identify compounds that produced similar pS6 and p62 dose response phenotypes after treatment.

[2] = system: ACHN cells; assay: Cellular respiration (XF96 Seahorse, ECAR and OCR); type: cell-based, human; details: XF-96 Extracellular Flux Analyzer
Method: Oxygen consumption and extracellular acidification rates were carried out in a XF96 Seahorse Analyzer (Seahorse Bioscience, Billerica, Mass., USA). Cells were plated in the wells of 96-well plates (8×10^3 cells/well; XF96 plates, Seahorse Bioscience, North Billerica, Mass.) and incubated at 37° C. overnight. The next day, cells were treated with indicated drugs for 24 hours and then the medium was changed to XF Assay Medium and loaded with glucose, oligomycin, and 2-DG, respectively, as manufacture's recommendation.

[3] = system: SN12C xenografts; assay: SN12C xenograft study; type: in vivo
Method: 6-week old mice were utilized for human renal cell carcinoma xenografts. For both ACHN and SN12C cell lines 2×10^6 cells were diluted in 50 μl of PBS and 50 μl of Matrigel (BD Biosciences) and were injected subcutaneously into the right and left flank of each mouse. Tumors were monitored until they reached an average size of 50-80 mm3 (approximately 2 weeks), at which point treatments were begun. […] MK2206 (60 mg/kg/day) were administered by oral gavage 2-3 day/week. […] Tumors and mouse weights were measured twice weekly. At least 6-8 mice per treatment group were included. All mice were euthanized using CO2 inhalation followed by cervical dislocation per institutional guidelines at Oregon Health and Science University. Experiments were approved by the Institutional Animal Care and Use Committee at OHSU.
Immunostaining was performed following deparaffinization and rehydration of slides. Antigen retrieval was performed in a pressure cooker using citrate buffer (pH 6.0) for 4 min. Nonspecific binding was blocked using Vector mouse IgG blocking serum 30 min at room temperature. Samples were incubated at room temperature with rabbit monoclonal antibodies pS6 (CST #5364) cleaved caspase 3 (CST#9661), and Ki67 (Dako#M7240).
Slides were developed with Vector Immpress rabbit IgG (#MP7401) and Vector Immpress mouse IgG (#MP7400) for 30 min at room temperature. Chromogenic detection was performed using Vector Immpact DAB (#SK4105) for 3 min. Slides were counterstained with hematoxylin. A 3DHistech MIDI Scanner (Perkin Elmer) was used to capture whole slide digital images with a 20× objective. […]
Mouse tumor size was analyzed by 2-way ANOVA with time and drug as factors, using GraphPad Prism. Mouse weight during treatment was analyzed by repeated measures 2-way ANOVA, with time and drug as factors. […] Immunohistochemistry: P-values were calculated using one-way ANOVA, with Bonferroni's multiple comparison test. * denotes P<0.05, ** denotes P<0.01, and *** denotes P<0.001 throughout this disclosure. […]

For `N#CCNC(=O)c1ccc(-c2ccnc(Nc3ccc(N4CCOCC4)cc3)n2)cc1` [CYT387], the S6 phosphorylation [1] was “potently inhibited S6 phosphorylation”, the “induction of autophagy / autophagic flux” value [1] was “potent inducers of autophagic flux” and the ECAR [2] was “significantly reduced the ECAR”. For the same molecule, the “apoptosis (cleaved-caspase3) in tumors” value ([3]; SN12C xenograft tumors) was “minimal impact on apoptosis” and the “antitumor effect of single agent” value ([3]; SN12C, CYT387 50 mg/kg/day or MK2206 60 mg/kg/day oral gavage) was “exhibited antitumor effect”.
